Measured values from patent publication US20250282768A1 (Janssen Pharmaceutica NV, priority 2022, published 2025).

Tested on: p-IKKa levels in L363 (NIK translocated multiple myeloma) cells
Assay: Assay 2: Effect of compounds on p-IKKa levels in L363 (NIK translocated multiple myeloma) cells
Assay type: cell-based
Details: Homo sapiens, L-363, 6 h, read-out: Assay 2 IC50 (nM), p-IKKa (Ser 176/180) in BAFF stimulated L363 cells with MG132, 6 h; average if tested more than once
Summary of the method: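 L363 cells incubated overnight ± 250 ng/ml BAFF, then 6 h at 37 °C with compound (0.3% DMSO) ± 10 μM MG132. Lysates assayed for p-IKKa (Ser176/180) by AlphaLISA SureFire. IC50 from sigmoidal fit of % inhibition normalized to BAFF/MG132-stimulated and unstimulated controls.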

First: CN1CC[C@@](O)(c2cc(-c3cccc(-c4ccnc(Nc5cnn(C)c5)n4)c3)no2)C1=O [Example 72, (R)-3-Hydroxy-1-methyl-3-(3-(3-(2-((1-methyl-1H-pyrazol-4-yl)amino)pyrimidin-4-yl)phenyl)isoxazol-5-yl)pyrrolidin-2-one]
Second: Cc1cc(-c2cc([C@]3(O)CCN(C)C3=O)on2)nc(-c2ccnc(Nc3cnn(C)c3)n2)c1 [Example 99, (R)-3-Hydroxy-1-methyl-3-(3-(4-methyl-6-(2-((1-methyl-1H-pyrazol-4-yl)amino)pyrimidin-4-yl)pyridin-2-yl)isoxazol-5-yl)pyrrolidin-2-one]
The IC50 of the first is higher: > 500 nM for the first, < 50 nM for the second.

`[2H]C([2H])([2H])n1cc(Nc2nccc(-c3cccc(-c4cc([C@]5(O)CCN(C)C5=O)on4)n3)n2)cn1` [Example 73, (R)-3-Hydroxy-1-methyl-3-(3-(6-(2-((1-(methyl-d3)-1H-pyrazol-4-yl)amino)pyrimidin-4-yl)pyridin-2-yl)isoxazol-5-yl)pyrrolidin-2-one] and `[2H]C([2H])([2H])C([2H])([2H])n1cc(Nc2nccc(-c3cccc(-c4cc([C@]5(O)CCN(C)C5=O)on4)n3)n2)cn1` [Example 74, (R)-3-(3-(6-(2-((1-(Ethyl-d5)-1H-pyrazol-4-yl)amino)pyrimidin-4-yl)pyridin-2-yl)isoxazol-5-yl)-3-hydroxy-1-methylpyrrolidin-2-one] cannot be ordered by IC50: < 50 nM for the first, < 50 nM for the second.

`CN1CC[C@@](O)(c2cn(-c3cccc(-c4ccnc(Nc5ccn(C)n5)n4)n3)nn2)C1=O` [Example 75, (R)-3-Hydroxy-1-methyl-3-(1-(6-(2-((1-methyl-1H-pyrazol-3-yl)amino)pyrimidin-4-yl)pyridin-2-yl)-1H-1,2,3-triazol-4-yl)pyrrolidin-2-one] and `CN1CC[C@@](O)(c2cn(-c3cccc(-c4ccnc(Nc5cnn6ccccc56)n4)n3)nn2)C1=O` [Example 121, (R)-3-Hydroxy-1-methyl-3-(1-(6-(2-(pyrazolo[1,5-a]pyridin-3-ylamino)pyrimidin-4-yl)pyridin-2-yl)-1H-1,2,3-triazol-4-yl)pyrrolidin-2-one] cannot be ordered by IC50: < 50 nM for the first, < 50 nM for the second.

Compared with `CN1CC[C@@](O)(c2cc(-c3cccc(-c4ccnc(Nc5cncc(F)c5)n4)n3)no2)C1=O` [Example 86, (R)-3-(3-(6-(2-((5-Fluoropyridin-3-yl)amino)pyrimidin-4-yl)pyridin-2-yl)isoxazol-5-yl)-3-hydroxy-1-methylpyrrolidin-2-one], `COc1ncc(Nc2nccc(-c3cccc(-c4cc([C@]5(O)CCN(C)C5=O)on4)n3)n2)cn1` [Example 112, (R)-3-Hydroxy-3-(3-(6-(2-((2-methoxypyrimidin-5-yl)amino)pyrimidin-4-yl)pyridin-2-yl)isoxazol-5-yl)-1-methylpyrrolidin-2-one] is higher in IC50: < 50 nM for the first, 50 to 500 nM for the second.

Compared with `CN1CC[C@@](O)(c2cc(-c3cccc(-c4ccnc(Nc5cnn(C6CCNC6)c5)n4)n3)no2)C1=O` (stereo partly drawn) [Example 90, (3R)-3-Hydroxy-1-methyl-3-(3-(6-(2-((1-(pyrrolidin-3-yl)-1H-pyrazol-4-yl)amino)pyrimidin-4-yl)pyridin-2-yl)isoxazol-5-yl)pyrrolidin-2-one], `CN1CC[C@@](O)(c2cc(-c3cccc(-c4ccnc(Nc5cnn(C6CC6)c5)n4)n3)no2)C1=O` [Example 124, (R)-3-(3-(6-(2-((1-Cyclopropyl-1H-pyrazol-4-yl)amino)pyrimidin-4-yl)pyridin-2-yl)isoxazol-5-yl)-3-hydroxy-1-methylpyrrolidin-2-one] is lower in IC50: 50 to 500 nM for the first, < 50 nM for the second.

`CCn1cc(Nc2nccc(-c3cccc(-c4cc([C@]5(O)CCN(C)C5=O)no4)n3)n2)cn1` [Example 91, (R)-3-(5-(6-(2-((1-Ethyl-1H-pyrazol-4-yl)amino)pyrimidin-4-yl)pyridin-2-yl)isoxazol-3-yl)-3-hydroxy-1-methylpyrrolidin-2-one] and `Cc1ncccc1Nc1nccc(-c2cccc(-c3cc([C@]4(O)CCN(C)C4=O)no3)n2)n1` [Example 111, (R)-3-Hydroxy-1-methyl-3-(5-(6-(2-((2-methylpyridin-3-yl)amino)pyrimidin-4-yl)pyridin-2-yl)isoxazol-3-yl)pyrrolidin-2-one] cannot be ordered by IC50: < 50 nM for the first, < 50 nM for the second.

`C[C@@H]1C[C@@](O)(c2cc(-c3cccc(-c4ccnc(Nc5ccn(C)n5)n4)n3)no2)C(=O)N1C` [Example 92, (3R,5R)-3-Hydroxy-1,5-dimethyl-3-(3-(6-(2-((1-methyl-1H-pyrazol-3-yl)amino)pyrimidin-4-yl)pyridin-2-yl)isoxazol-5-yl)pyrrolidin-2-one] and `CN1C(=O)[C@](O)(c2cc(-c3cccc(-c4ccnc(Nc5ccn(C)n5)n4)n3)no2)[C@H]2C[C@H]21` [Example 93, (1R,4R,5S)-4-Hydroxy-2-methyl-4-(3-(6-(2-((1-methyl-1H-pyrazol-3-yl)amino)pyrimidin-4-yl)pyridin-2-yl)isoxazol-5-yl)-2-azabicyclo[3.1.0]hexan-3-one] fall in the same range of IC50: 50 to 500 nM for the first, 50 to 500 nM for the second.

`CN1CC(F)(F)[C@@](O)(c2cc(-c3cncc(-c4ccnc(Nc5ccn(C)n5)n4)n3)no2)C1=O` [Example 94, (R)-4,4-Difluoro-3-hydroxy-1-methyl-3-(3-(6-(2-((1-methyl-1H-pyrazol-3-yl)amino)pyrimidin-4-yl)pyrazin-2-yl)isoxazol-5-yl)pyrrolidin-2-one] and `CN1CC[C@@](O)(c2cc(-c3cncc(-c4ccnc(Nc5ccn(C)n5)n4)n3)no2)C1=O` [Example 95, (R)-3-Hydroxy-1-methyl-3-(3-(6-(2-((1-methyl-1H-pyrazol-3-yl)amino)pyrimidin-4-yl)pyrazin-2-yl)isoxazol-5-yl)pyrrolidin-2-one] fall in the same range of IC50: 50 to 500 nM for the first, 50 to 500 nM for the second.

Compared with `CN1CC[C@@](O)(c2cnn(-c3cccc(-c4ccnc(Nc5cn(CC(F)F)nc5OC5CC5)n4)n3)c2)C1=O` [Example 97, (R)-3-(1-(6-(2-((3-Cyclopropoxy-1-(2,2-difluoroethyl)-1H-pyrazol-4-yl)amino)pyrimidin-4-yl)pyridin-2-yl)-1H-pyrazol-4-yl)-3-hydroxy-1-methylpyrrolidin-2-one], `COc1nn(CC(F)F)cc1Nc1nccc(-c2cccc(-n3cc([C@]4(O)CCN(C)C4=O)nn3)n2)n1` [Example 122, (R)-3-(1-(6-(2-((1-(2,2-Difluoroethyl)-3-methoxy-1H-pyrazol-4-yl)amino)pyrimidin-4-yl)pyridin-2-yl)-1H-1,2,3-triazol-4-yl)-3-hydroxy-1-methylpyrrolidin-2-one] is lower in IC50: 50 to 500 nM for the first, < 50 nM for the second. The second is the more potent here.

`CN1CC[C@@](O)(c2cnn(-c3cccc(-c4ccnc(Nc5cnn6ccccc56)n4)n3)c2)C1=O` [Example 98, (R)-3-Hydroxy-1-methyl-3-(1-(6-(2-(pyrazolo[1,5-a]pyridin-3-ylamino)pyrimidin-4-yl)pyridin-2-yl)-1H-pyrazol-4-yl)pyrrolidin-2-one] and `CN1CC[C@@](O)(c2nnc(-c3cccc(-c4ccnc(Nc5cnn(C)c5Cl)n4)n3)s2)C1=O` [Example 102, (S)-3-(5-(6-(2-((5-Chloro-1-methyl-1H-pyrazol-4-yl)amino)pyrimidin-4-yl)pyridin-2-yl)-1,3,4-thiadiazol-2-yl)-3-hydroxy-1-methylpyrrolidin-2-one] fall in the same range of IC50: 50 to 500 nM for the first, 50 to 500 nM for the second.

Going from `Cc1cc(-c2cc([C@]3(O)CCN(C)C3=O)on2)nc(-c2ccnc(Nc3ccn(C)n3)n2)c1` [Example 100, (R)-3-Hydroxy-1-methyl-3-(3-(4-methyl-6-(2-((1-methyl-1H-pyrazol-3-yl)amino)pyrimidin-4-yl)pyridin-2-yl)isoxazol-5-yl)pyrrolidin-2-one] to `CN1CC[C@@](O)(c2cc(-c3cccc(-c4cc(Cl)nc(Nc5ccn(C)n5)n4)n3)no2)C1=O` [Example 101, (R)-3-(3-(6-(6-Chloro-2-((1-methyl-1H-pyrazol-3-yl)amino)pyrimidin-4-yl)pyridin-2-yl)isoxazol-5-yl)-3-hydroxy-1-methylpyrrolidin-2-one], the IC50 rises from < 50 nM to > 500 nM. The first is the more potent here.

Going from `CN1CC[C@](O)(c2nnc(-c3cccc(-c4ccnc(Nc5cnn(C)c5Cl)n4)n3)s2)C1=O` [Example 103, (R)-3-(5-(6-(2-((5-chloro-1-methyl-1H-pyrazol-4-yl)amino)pyrimidin-4-yl)pyridin-2-yl)-1,3,4-thiadiazol-2-yl)-3-hydroxy-1-methylpyrrolidin-2-one] to `CN1CC(F)(F)[C@@](O)(c2cn(-c3cccc(-c4ccnc(Nc5cnn(C)c5Cl)n4)n3)nn2)C1=O` [Example 109, (R)-3-(1-(6-(2-((5-Chloro-1-methyl-1H-pyrazol-4-yl)amino)pyrimidin-4-yl)pyridin-2-yl)-1H-1,2,3-triazol-4-yl)-4,4-difluoro-3-hydroxy-1-methylpyrrolidin-2-one], the IC50 falls from > 500 nM to < 50 nM. The second is the more potent here.

`CN1CC(F)(F)[C@@](O)(c2cc(-c3cccc(-c4ccnc(Nc5cnn6c5COCC6)n4)n3)no2)C1=O` [Example 110, (R)-3-(3-(6-(2-((6,7-Dihydro-4H-pyrazolo[5,1-c][1,4]oxazin-3-yl)amino)pyrimidin-4-yl)pyridin-2-yl)isoxazol-5-yl)-4,4-difluoro-3-hydroxy-1-methylpyrrolidin-2-one] and `COc1nccc(Nc2nccc(-c3cccc(-c4cc([C@]5(O)CCN(C)C5=O)on4)n3)n2)n1` [Example 113, (R)-3-Hydroxy-3-(3-(6-(2-((2-methoxypyrimidin-4-yl)amino)pyrimidin-4-yl)pyridin-2-yl)isoxazol-5-yl)-1-methylpyrrolidin-2-one] cannot be ordered by IC50: < 50 nM for the first, < 50 nM for the second.

Compared with `Cc1cc(Nc2nccc(-c3cccc(-n4cc([C@@]5(O)C(=O)N(C)CC5(F)F)nn4)n3)n2)ccn1` [Example 117, (R)-4,4-Difluoro-3-hydroxy-1-methyl-3-(1-(6-(2-((2-methylpyridin-4-yl)amino)pyrimidin-4-yl)pyridin-2-yl)-1H-1,2,3-triazol-4-yl)pyrrolidin-2-one], `CN1CC[C@@](O)(c2cc(-c3cccc(-c4ccnc(NCCn5ccc(N)n5)n4)n3)no2)C1=O` [Example 123, (R)-3-(3-(6-(2-((2-(3-Amino-1H-pyrazol-1-yl)ethyl)amino)pyrimidin-4-yl)pyridin-2-yl)isoxazol-5-yl)-3-hydroxy-1-methylpyrrolidin-2-one] is higher in IC50: < 50 nM for the first, > 500 nM for the second. The first is the more potent here.
